Test results reported in PubChem BioAssay (NCI).
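Cells were grown in 96-well plates and exposed to each compound for 48 hours at five concentrations; endpoints were interpolated linearly between bracketing concentrations, or set to the highest concentration if not reached. GI50 is the concentration that inhibits growth by half. TGI: concentration producing complete growth inhibition.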

What was measured:
Experiment in all cases: NCI-60 cell line screen, 48 h
DU-145 prostate = test system: DU-145 prostate
HCC-2998 colon = test system: HCC-2998 colon
HOP-62 NSCLC = test system: HOP-62 NSCLC
KM12 colon = test system: KM12 colon
LOX IMVI melanoma = test system: LOX IMVI melanoma
NCI-H23 lung = test system: NCI-H23 lung
RXF 393 renal = test system: RXF 393 renal
SF-268 CNS = test system: SF-268 CNS
SF-295 CNS = test system: SF-295 CNS
T-47D breast = test system: T-47D breast

Compound	GI50 (DU-145 prostate) [µM]	TGI (DU-145 prostate) [µM]	GI50 (HCC-2998 colon) [µM]	TGI (HCC-2998 colon) [µM]	GI50 (HOP-62 NSCLC) [µM]	TGI (HOP-62 NSCLC) [µM]	GI50 (KM12 colon) [µM]	TGI (KM12 colon) [µM]	GI50 (LOX IMVI melanoma) [µM]	TGI (LOX IMVI melanoma) [µM]	GI50 (NCI-H23 lung) [µM]	TGI (NCI-H23 lung) [µM]	GI50 (RXF 393 renal) [µM]	TGI (RXF 393 renal) [µM]	GI50 (SF-268 CNS) [µM]	TGI (SF-268 CNS) [µM]	GI50 (SF-295 CNS) [µM]	TGI (SF-295 CNS) [µM]	GI50 (T-47D breast) [µM]	TGI (T-47D breast) [µM]
COc1ccc(/C(=C2\O[C@@H]([C@H]3COC(C)(C)O3)[C@H]3OC(C)(C)O[C@@H]23)c2cc(OC)c(OC)c(OC)c2)cc1O	3.29	13.3	13.2	> 100	5.93	25.5	3.99	> 100	5.18	> 100	7.96	46	2.12	5.89	6.95	31.4	7	37.3	25.1	> 100
Nc1ccn(C2O[C@H](CO)[C@@H](O)[C@@H]2O)c(=O)n1 (stereo partly drawn)		> 100	68.5	> 100	64.3	> 100		> 100		> 100	30.4	> 100		> 100		> 100		> 100		> 100
COc1cc(/C=C/c2cc(/C=C/c3ccc(O)c(OC)c3)n(-c3ccccc3)n2)ccc1O	0.399	1.4	0.605	2.46	0.404	1.52	0.315	1.29			0.197	2	0.258	0.888					0.645	2.6
Cn1cc(-c2cnc3ccc(NC(=O)Nc4ccc(F)c(Br)c4)cc3n2)cn1	1.67	3.96	1.79	3.5	1.8	3.84	1.71	3.65	1.51	2.9	1.75	3.91	1.73	4.67	2.38	7	1.89	3.73	0.631	2.27
O=C1NNC=Nc2ccc(cc2)S(=O)(=O)c2ccc(cc2)N=CNNC1=O		> 100		> 100		> 100		> 100		> 100		> 100		> 100		> 100		> 100		> 100
N#CSCC1CC(O)(c2ccccc2)C(c2ccccc2)C(c2ccc(Cl)cc2)O1 (stereo not drawn)	2.02	4.67	1.84	3.35	2.08	3.96			1.58	2.97	1.57	3.03	1.62	3.24	1.67	4.74	1.75	4.22	1.07	3.53
Cc1ccc(CS/C(=C\c2ccc([N+](=O)[O-])cc2)C(=O)c2ccc(F)cc2)cc1	21.1	> 100	2.73	8.42	11.5	29.2	2.16	5.13	1.64	3	4.78	41	13	31.8	4.13	20.7	2.25	6.48	4.53	22.4
CSc1ccc(C2=NN(C(C)=O)C(c3cc(C)cs3)C2)cc1 (stereo not drawn)	34.6	> 100	20	> 100	37.3	> 100	24	> 100	24.2	> 100	29.9	> 100	56.7	> 100	35.6	> 100	22.4	> 100	13	> 100
O=C(CI)NC1Oc2ccccc2-c2oc(=O)c(-c3ccccc3)cc21 (stereo not drawn)	1.57	2.98	8.46	26.6	1.87	3.81	1.77	3.46	0.307	1.07			1.5	3	1.68	3.36	1.77	3.37	1.79	4.44
Cc1cc(N(CCOS(C)(=O)=O)CCOS(C)(=O)=O)ccc1C=Nc1ccc(-c2nc(Cc3ccccc3)sc2C)cc1		11.7		15.7		20.8		34		20.2		17.8		4.92		20.4		32.4		23.8
Cc1nc2cccc([N+](=O)[O-])c2c(NCCCN(C)C)c1C		> 100		> 54.3		> 69.2		> 62.4		> 100		> 31.6		> 100		> 100		> 100		> 100
CNC(=O)OCc1c(COC(=O)NC)c(-c2ccc(Cl)c(Cl)c2)n2c1SCC2		39.5		30		50.7		36.8		25.5		40.5		13.8		32.9		35.7		57.2
CC1OC(n2cc(F)c(=O)[nH]c2=O)CCC1O (stereo not drawn)		> 100		> 100		> 100		> 100		> 100		> 100		> 100		> 100		> 100		> 100
CN1CCN(Cc2ccc(NC(=O)c3cncc(C#Cc4cnc(N)c5ccc(C#N)cc45)c3)cc2C(F)(F)F)CC1	0.0332	1.47	0.901	11.1	0.0439	0.927	0.005	0.603	0.0203	0.546	0.172	1.27	0.0162	0.151	0.0497	0.859	0.214	9.95	0.247	2.03
Cc1c(C(=O)N/N=C/c2ccc(Cl)cc2)nnn1-c1ccnc2c(C(F)(F)F)cccc12	4.89	20.5	9.54	53.1	5.01	17.3	8.94	41.7	1.69	3.18	13.5	35.9	3.06	11.2	11.7	28.2	1.82	4.01	7.59	28.9
